According to ChEMBL document CHEMBL5370580, “Discovery of three-dimensional bicyclo[3.3.1]nonanols as novel heat shock protein 90 inhibitors” (Bioorg Med Chem, 2023):
Active and inactive are the calls of the source. The rule behind the calls is not given here.

Key:
[1] = Inhibition of HIF-1 mediated gene transcription activity in human HeLa cells co-expressing HRE dependent firefly luciferase reporter gene pre-incubated for 1 hrs followed by incubation at hypoxic condition for 12 hrs by luciferase reporter gene assay; format: cell-based
HeLa [2] = assay: Anticancer activity against human HeLa cells assessed as cell growth inhibition measured after 72 hrs by MTT assay; format: functional, cell-based
[3] = target: Hypoxia-inducible factor 1-alpha (Homo sapiens) (UniProt Q16665); assay: Induction of HIF-1alpha degradation in human HeLa cells assessed as reduction in HIF-1alpha accumulation upto 100 uM incubated for 12 hrs under hypoxia condition by Western blot analysis; format: cell-based
Hypoxia-inducible factor 1-alpha (Homo sapiens), sequence (Q16665 whole entry, looked up): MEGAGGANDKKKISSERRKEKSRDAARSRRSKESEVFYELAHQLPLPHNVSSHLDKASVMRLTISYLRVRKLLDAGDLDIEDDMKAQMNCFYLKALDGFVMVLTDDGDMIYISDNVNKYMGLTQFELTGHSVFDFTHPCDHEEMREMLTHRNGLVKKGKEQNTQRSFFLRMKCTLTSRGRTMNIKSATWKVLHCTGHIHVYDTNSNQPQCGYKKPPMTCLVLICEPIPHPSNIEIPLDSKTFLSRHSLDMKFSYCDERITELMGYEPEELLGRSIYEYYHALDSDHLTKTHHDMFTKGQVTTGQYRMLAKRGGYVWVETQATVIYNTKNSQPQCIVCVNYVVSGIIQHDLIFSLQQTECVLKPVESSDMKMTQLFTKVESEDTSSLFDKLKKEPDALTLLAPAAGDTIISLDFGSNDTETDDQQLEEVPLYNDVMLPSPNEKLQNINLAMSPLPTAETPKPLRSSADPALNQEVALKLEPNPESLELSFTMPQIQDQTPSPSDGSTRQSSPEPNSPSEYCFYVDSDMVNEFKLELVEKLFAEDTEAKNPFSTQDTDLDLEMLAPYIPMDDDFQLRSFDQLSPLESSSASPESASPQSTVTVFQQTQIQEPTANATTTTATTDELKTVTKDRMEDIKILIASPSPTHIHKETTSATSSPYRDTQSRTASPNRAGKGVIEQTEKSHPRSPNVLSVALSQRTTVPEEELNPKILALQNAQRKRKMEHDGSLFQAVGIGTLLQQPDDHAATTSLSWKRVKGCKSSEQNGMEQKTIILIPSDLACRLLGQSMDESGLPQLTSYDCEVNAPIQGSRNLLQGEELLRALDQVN

[4] = target: Hypoxia-inducible factor 1-alpha (Homo sapiens) (UniProt Q16665); assay: Induction of HIF-1alpha degradation in human HeLa cells assessed as reduction in CA9 protein expression upto 100 uM incubated for 12 hrs under hypoxia condition by Western blot analysis; format: cell-based
HeLa [5] = assay: Effect on HIF-1alpha mRNA expression in human HeLa cells at 100 uM pre-incubated for 1 hr followed by incubation at hypoxic condition for 12 hrs by RT-PCR assay; format: functional, cell-based; details: time 13.0 hrs
HeLa [6] = assay: Effect on CA9 mRNA expression in human HeLa cells at 100 uM pre-incubated for 1 hr followed by incubation at hypoxic condition for 12 hrs by RT-PCR assay; format: functional, cell-based; details: time 13.0 hrs
HeLa [7] = assay: Effect on HIF-1alpha mRNA expression in human HeLa cells at 1 to 100 uM pre-incubated for 1 hr followed by incubation at hypoxic condition for 12 hrs by semi-quantitative RT-PCR assay; format: functional, cell-based; details: dose 1-100 µM, time 13.0 hrs
Heat shock protein HSP90 [8] = target: T1, Heat shock protein HSP90 (Homo sapiens, UniProt P07900+P08238); assay: Inhibition of HSP90 in human HeLa cells assessed as reduction in CDK4 protein expression at 30 to 100 uM measured after 24 hrs by Western blot analysis; format: cell-based; details: dose 30-100 µM
Heat shock protein HSP90 [9] = target: T1, Heat shock protein HSP90; assay: Inhibition of HSP90 in human HeLa cells assessed as reduction in AKT phosphorylation at 30 to 100 uM measured after 12 hrs by Western blot analysis; format: cell-based; details: dose 30-100 µM
Heat shock protein HSP90 [10] = target: T1, Heat shock protein HSP90; assay: Inhibition of HSP90 in human HeLa cells assessed as reduction in p70s6k phosphorylation at 30 to 100 uM measured after 12 hrs by Western blot analysis; format: cell-based; details: dose 30-100 µM
Heat shock protein HSP90 [11] = target: T1, Heat shock protein HSP90; assay: Inhibition of HSP90 in human HeLa cells assessed as reduction in ERK phosphorylation at 30 to 100 uM measured after 12 hrs by Western blot analysis; format: cell-based; details: dose 30-100 µM
HeLa [12] = assay: Effect on HSP90 protein expression in human HeLa cells at 30 to 100 uM measured after 24 hrs by Western blot analysis; format: functional, cell-based; details: dose 30-100 µM
HeLa [13] = assay: Effect on HSP70 protein expression in human HeLa cells at 30 to 100 uM measured after 24 hrs by Western blot analysis; format: functional, cell-based; details: dose 30-100 µM
[14] = Effect on HSP90 protein expression in human HeLa cells assessed as fold change at 100 uM measured after 24 hrs by immunoblotting analysis (reference value: 1); format: functional
[15] = Effect on HSF1 protein expression in human HeLa cells assessed as fold change at 100 uM measured after 24 hrs by immunoblotting analysis (reference value: 1); format: functional
[16] = target: T2, Heat shock factor protein 1 (Homo sapiens) (UniProt Q00613); assay: Activation of HSF1 in human HeLa cells assessed as increase in HSP70 mRNA expression at 100 uM measured after 12 hrs by Real-time PCR assay; format: cell-based
T2 sequence (whole entry): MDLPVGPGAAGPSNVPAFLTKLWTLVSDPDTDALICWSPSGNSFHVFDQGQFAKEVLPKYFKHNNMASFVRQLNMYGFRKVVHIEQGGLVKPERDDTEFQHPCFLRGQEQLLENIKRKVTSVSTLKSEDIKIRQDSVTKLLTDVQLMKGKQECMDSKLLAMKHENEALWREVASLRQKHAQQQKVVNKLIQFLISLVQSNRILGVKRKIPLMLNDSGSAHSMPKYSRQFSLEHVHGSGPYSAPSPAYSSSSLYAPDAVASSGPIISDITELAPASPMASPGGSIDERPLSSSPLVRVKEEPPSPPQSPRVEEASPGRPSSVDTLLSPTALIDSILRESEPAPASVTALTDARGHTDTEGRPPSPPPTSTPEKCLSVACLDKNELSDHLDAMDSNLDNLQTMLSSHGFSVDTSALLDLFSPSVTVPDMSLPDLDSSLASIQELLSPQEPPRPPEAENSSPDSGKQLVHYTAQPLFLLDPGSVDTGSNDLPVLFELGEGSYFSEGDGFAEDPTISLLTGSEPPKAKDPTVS

[17] = target: T2, Heat shock factor protein 1 (Homo sapiens); assay: Activation of HSF1 in human HeLa cells assessed as increase in HSP47 mRNA expression at 100 uM measured after 12 hrs by Real-time PCR assay; format: cell-based
[18] = target: T2, Heat shock factor protein 1 (Homo sapiens); assay: Activation of HSF1 in human HeLa cells assessed as increase in HSP27 mRNA expression at 100 uM measured after 12 hrs by Real-time PCR assay; format: cell-based
Heat shock protein HSP90 [19] = target: T1, Heat shock protein HSP90; assay: Inhibition of recombinant human HSP90 expressed in Escherichia coli BL21 assessed as increase in DTT induced insulin aggregation by measuring increase in absorbance at 100 uM pre-incubated for 1 hrs followed by DTT addition by microplate reader analysis
HeLa [20] = assay: Effect on CA9 mRNA expression in human HeLa cells at 1 to 100 uM pre-incubated for 1 hr followed by incubation at hypoxic condition for 12 hrs by semi-quantitative RT-PCR assay; format: functional, cell-based; details: dose 1-100 µM, time 13.0 hrs
[21] = Effect on HSP70 protein expression in human HeLa cells assessed as fold change at 100 uM measured after 24 hrs by immunoblotting analysis (reference value: 1); format: functional
[22] = Effect on CDK4 protein expression in human HeLa cells assessed as fold change at 100 uM measured after 24 hrs by immunoblotting analysis (reference value: 1); format: functional
[23] = Downregulation of p-AKT protein expression in human Hela cells assessed as fold change at 100 uM measured after 24 hrs by immunoblotting analysis (reference value: 1); format: functional
[24] = Inhibition of recombinant luciferase (unknown origin) incubated for 10 mins by luminescence based microplate reader analysis
[25] = Effect on HSP90 protein expression in human HeLa cells assessed as fold change at 10 uM measured after 24 hrs by immunoblotting analysis (reference value: 1); format: functional
[26] = Effect on HSF1 protein expression in human HeLa cells assessed as fold change at 10 uM measured after 24 hrs by immunoblotting analysis (reference value: 1); format: functional
[27] = Downregulation of p-AKT protein expression in human Hela cells assessed as fold change at 10 uM measured after 24 hrs by immunoblotting analysis (reference value: 1); format: functional
[28] = Downregulation of CDK4 protein expression in human Hela cells assessed as fold change at 10 uM measured after 24 hrs by immunoblotting analysis (reference value: 1); format: functional
[29] = target: T2, Heat shock factor protein 1 (Homo sapiens); assay: Activation of HSF1 in human HeLa cells assessed as increase in HSP70 mRNA expression at 10 uM measured after 12 hrs by Real-time PCR assay; format: cell-based; details: filed as activator
[30] = target: T2, Heat shock factor protein 1 (Homo sapiens); assay: Activation of HSF1 in human HeLa cells assessed as increase in HSP47 mRNA expression at 10 uM measured after 12 hrs by Real-time PCR assay; format: cell-based; details: filed as activator
[31] = target: T2, Heat shock factor protein 1 (Homo sapiens); assay: Activation of HSF1 in human HeLa cells assessed as increase in HSP27 mRNA expression at 10 uM measured after 12 hrs by Real-time PCR assay; format: cell-based; details: filed as activator
[32] = Effect on HSP70 protein expression in human HeLa cells assessed as fold change at 10 uM measured after 24 hrs by immunoblotting analysis (reference value: 1); format: functional
Heat shock protein HSP90 [33] = target: T1, Heat shock protein HSP90; assay: Inhibition of recombinant human HSP90 ATPase activity expressed in Escherichia coli BL21 incubated for 3 hrs in presence of ATP by malachite green dye based microplate reader analysis

## CCCC[C@@H]1C[C@@H]2C(C(=O)OCC(C)C)=C(O)[C@H](C(=O)OC)[C@@](O)([C@@H]1C(=O)OC)[C@H]2C(=O)O
[1]
  IC50: 70.4 µM
HeLa [2]
  IC50: 40.1 µM
[3]
  Activity: Active
[4]
  Activity: Active
HeLa [5]
  Activity: inactive
HeLa [6]
  Activity: Active
HeLa [7]
  Activity: inactive
Heat shock protein HSP90 [8]
  inhibition: Active
Heat shock protein HSP90 [9]
  inhibition: Active
Heat shock protein HSP90 [10]
  inhibition: Active
Heat shock protein HSP90 [11]
  inhibition: Active
HeLa [12]
  Activity: inactive
HeLa [13]
  Activity: inactive
[14]
  fold change (FC): 0.97
[15]
  fold change (FC): 1.02
[16]
  Activity: inactive
[17]
  Activity: inactive
[18]
  Activity: inactive
Heat shock protein HSP90 [19]
  inhibition: inactive
HeLa [20]
  Activity: Active
[21]
  fold change (FC): 0.95
[22]
  fold change (FC): 0.78
[23]
  fold change (FC): 0.82
[24]
  inhibition: Active

## CCCC[C@@H]1C[C@@H]2C(C(=O)OCC(C)C)=C(O)[C@H](C(=O)OCC(C)C)[C@@](O)([C@@H]1C(=O)OCC(C)C)[C@H]2C(=O)OCC(C)C
[1]
  IC50: > 100 µM
HeLa [2]
  IC50: 72.7 µM

## CCCC[C@@H]1C[C@@H]2C(C(=O)OCC(C)C)=C(O)[C@H](C(=O)OC)[C@@](O)([C@@H]1C(=O)OCC(C)C)[C@H]2C(=O)O
[1]
  IC50: > 100 µM
HeLa [2]
  IC50: 22.6 µM

## CCCC[C@@H]1C[C@@H]2C(C(=O)OC)=C(O)[C@H](C(=O)OC)[C@@](O)([C@@H]1C(=O)OC)[C@H]2C(=O)O
[1]
  IC50: > 100 µM
HeLa [2]
  IC50: 44.8 µM

## COC(=O)C1=C(O)[C@H](C(=O)OC)[C@@]2(O)[C@H](C(=O)OC)[C@H](C)C[C@H]1[C@@H]2C(=O)O
[1]
  IC50: > 100 µM
HeLa [2]
  IC50: > 100 µM

## COC1=C2C[C@@H](C)C[C@H](OC)[C@H](O)[C@@H](C)/C=C(\C)[C@H](OC(N)=O)[C@@H](OC)/C=C\C=C(/C)C(=O)NC(=CC1=O)C2=O [GELDANAMYCIN]
[25]
  fold change (FC): 0.93
[26]
  fold change (FC): 1.06
[27]
  fold change (FC): 0.7
[28]
  fold change (FC): 0.71
[29]
  Activity: Active
[30]
  Activity: Active
[31]
  Activity: Active
[32]
  fold change (FC): 1.96

## CCCC[C@@H]1C[C@@H]2C(C(=O)OCC(C)C)=C(O)[C@H](C(=O)OCC(C)C)[C@@](O)([C@@H]1C(=O)OCC(C)C)[C@H]2C(=O)O
[1]
  IC50: 36.3 µM
HeLa [2]
  IC50: 18.6 µM
[3]
  Activity: Active
[4]
  Activity: Active
HeLa [5]
  Activity: inactive
HeLa [6]
  Activity: Active
HeLa [7]
  Activity: inactive
Heat shock protein HSP90 [8]
  inhibition: Active
Heat shock protein HSP90 [9]
  inhibition: Active
Heat shock protein HSP90 [10]
  inhibition: Active
Heat shock protein HSP90 [11]
  inhibition: Active
HeLa [12]
  Activity: inactive
HeLa [13]
  Activity: inactive
[14]
  fold change (FC): 0.95
[15]
  fold change (FC): 0.9
[16]
  Activity: inactive
[17]
  Activity: inactive
[18]
  Activity: inactive
Heat shock protein HSP90 [33]
  IC50: 45.8 µM
Heat shock protein HSP90 [19]
  inhibition: inactive
HeLa [20]
  Activity: Active
[21]
  fold change (FC): 0.97
[22]
  fold change (FC): 0.52
[24]
  inhibition: Active

## CC(C)COC(=O)C1=C(O)[C@H](C(=O)OCC(C)C)[C@@]2(O)[C@H](C(=O)OCC(C)C)[C@H](C)C[C@H]1[C@@H]2C(=O)O
[1]
  IC50: 50.6 µM
HeLa [2]
  IC50: 18.8 µM
[3]
  Activity: Active
[4]
  Activity: Active
HeLa [5]
  Activity: inactive
HeLa [6]
  Activity: Active
HeLa [7]
  Activity: inactive
Heat shock protein HSP90 [8]
  inhibition: Active
Heat shock protein HSP90 [9]
  inhibition: Active
Heat shock protein HSP90 [10]
  inhibition: Active
Heat shock protein HSP90 [11]
  inhibition: Active
HeLa [12]
  Activity: inactive
HeLa [13]
  Activity: inactive
[14]
  fold change (FC): 0.96
[15]
  fold change (FC): 0.98
[16]
  Activity: inactive
[17]
  Activity: inactive
[18]
  Activity: inactive
Heat shock protein HSP90 [33]
  IC50: 95 µM
Heat shock protein HSP90 [19]
  inhibition: inactive
HeLa [20]
  Activity: Active
[21]
  fold change (FC): 0.99
[22]
  fold change (FC): 0.6
[23]
  fold change (FC): 0.51
[24]
  inhibition: Active
